Like-named read-outs stand apart in the source and are kept apart here.

In one assay the test system is E. coli ATCC 25922. Put plainly: checkerboard titration, gemifloxacin and cefaclor (MIC, FIC). The class given is cell-based, Escherichia coli. The procedure: (§1) Checkerboard microtitre broth dilution plates were prepared using the Hamilton MicroLab AT Plus system (Reno, Nev.). Two-fold serial dilutions (50 μl) of cefotaxime were made in columns 1 through 11 of a microtitre plate. Two-fold serial dilutions of gemifloxacin were prepared manually and the MicroLab AT Plus was used to dispense 25 μl of gemifloxacin at each concentration into rows A through G of the microtitre plate. The concentration range tested varied for each drug/organism combination to encompass the MIC endpoints of the individual components. Column 12 contained two fold serial dilutions of gemifloxacin only, and row H contained two fold serial dilutions of cefotaxie only. The last well (H) in column 12 was used as a positive growth control well, containing only medium and test isolate.
(§2) The bacteria were diluted to a 0.5 McFarland standard and then further diluted 1/50. Each well was inoculated with 25 μl of the isolate to give a final inoculum density of approximately 5×10^5 cfu/ml. The MicroLab AT Plus 2 was used to add the inoculum to the microtitre plates. After inoculation, the plates were covered with a 96 well microtitre plate lid and incubated at 35° C. in ambient air for 20–24 hours. A 10 μl aliquot of the inoculum was plated on trypticase soy agar containing 5% sheep blood to determine the purity of the final test inoculum.
(§3) Following incubation, a microtitre mirror reader (Cooke Instruments Ltd., England) was used to assist in determining the microdilution MIC endpoints. The MIC was determined as the lowest concentration of compound that inhibited visible growth of the organism.
(§4) The Fractional Inhibitory Concentrations (FICs) were calculated using the following formula: (A)/(MICA)+(B)/(MICB)=FICA+FICB=FICIndex wherein: • A is the MIC of drug A in the presence of drug B • B is the MIC of drug B in the presence of drug A • MIC A is the MIC of the organism to drug A alone • MIC B is the MIC of the organism to drug B alone • FIC A is the fractional inhibitory concentration of drug A • FIC B is the fractional inhibitory concentration of drug B
(§5) The FIC indices were interpreted using the following criteria: • ≦0.5=Synergy • >0.5–1=Additive • >1–2=Indifference • >2=Antagonism
3) E. coli ATCC 25922 was obtained from the SmithKline Beecham Anti-Infectives Research Culture Collection and stored at −80° C. in 10% glycerol. Before testing, the isolate was passaged onto agar plates (trypticase soy agar containing 5% sheeps blood) from the frozen stock for two consecutive days. […]
The combined effect of gemifloxacin and cefaclor was investigated in E. coli ATCC 25922 by using the checkerboard titration method described in Example 1. FIC Indices were calculated and interpreted as in Example 1.

The test system of assay [1] is clinically isolated P. aeruginosa strains. Briefly: checkerboard method, gemifloxacin or ciprofloxacin with ceftazidime, 6 clinical isolates (Example 5). It counts as cell-based, Pseudomonas aeruginosa. Particulars: for FICB: FIC of ceftazidime; for MIC: Pseudomonas aeruginosa. Here is the method: (§6) Minimal inhibitory concentrations (MICs) for each separate drug were determined. For wells along the growth-no growth interface, synergy was determined by calculating the Fractional Inhibitory Concentration (FIC) index. The Fractional Inhibitory Concentration (FIC) indices were calculated using the following formula: FICindex=FICA+FICB=[A]/MICA+[B]/MICB • Wherein: • FICA(or B), is the FIC of drug A (or B) MICA (or B) is the MIC of the organism to drug A (or B) • A (or B) is concentration of drug A (or B) that is the lowest inhibitory concentration
(§7) The FIC indices were interpreted using the following criteria: • ≦0.5=Synergy • >0.5–1.0=Additive • >1.0–4.0=Indifference • >4.0=Antagonism
(§8) The test organisms were clinical isolates collected in Korea. Organisms were frozen at −70 C. prior to testing. […] Gemifloxacin or ciprofloxacin solution was dispensed alone in the first row and combined with ceftazidime in the remaining rows. Ceftazidime as also dispensed alone in the first row in the first column. Test strains of P. aeruginosa were grown for 18 h in Mueller-Hinton broth, and then these overnight cultures were diluted with the same fresh medium to the density of approximately 10^7 CFU/mL. The bacterial concentrations were determined by measuring optical density or turbidity of the suspension and were verified by standard colony counts on antibiotic-free agar plates. A diluted bacterial solution was applied to 96-well plates containing serially diluted antimicrobial agents to yield 5×10^5 CFU/mL. Plates were incubated at 35 C for 18 hours.
MICs for each separate drug were determined, and for wells along the growth-no growth interface, synergy was determined by calculating FIC Indices as in Example 4. FIC Indices were calculated and interpreted as in Example 4.

The test system of assay [2] is clinically isolated P. aeruginosa. Put plainly: checkerboard titration, gemifloxacin or ciprofloxacin with ceftazidime, 27 clinical isolates (Example 4). Particulars: for FICB: FIC of ceftazidime; for MIC: Pseudomonas aeruginosa. It counts as cell-based, Pseudomonas aeruginosa. The procedure: as §8, with “C” for “C.”, “testing. Testing was done by the checkerboard method in 96-well plates using Mueller-Hinton broth.” for “testing.”, “Ceftazidime” for “Gemifloxacin or ciprofloxacin solution”, “was” for “was dispensed alone in the first row and combined with ceftazidime in the remaining rows. Ceftazidime as”, “10^4 CFU per spot.” for “5×10^5 CFU/mL.”, “aerobically overnight.” for “at 35 C for 18 hours.”
as §6, §7

For the next assay, the system named is S. saprophyticus 662. Briefly: checkerboard titration, gemifloxacin and amoxicillin (MIC, FIC). It counts as cell-based, Staphylococcus saprophyticus.
Another assay has as its system E. faecalis ATCC 29212. Put plainly: checkerboard titration, gemifloxacin and cefotaxime (MIC, FIC). The class given is cell-based, Enterococcus faecalis. The procedure:
1) The combined effect of gemifloxacin and cefotaxime was investigated in E. faecalis by using a checkerboard titration method. Evaluation for synergistic activity was carried out by calculation of fractional inhibitory concentrations (FICs) according to the method of Eliopoulos et al (1996, Antimicrobial Combinations, Antibiotics in Laboratory Medicine, Victor Lorian, 4th Edition, pp 337–338, Baltimore, Md., Williams and Wilkins).
E. faecalis ATCC 29212 was obtained from the SmithKline Beecham Anti-Infectives Research Culture Collection and stored at −80° C. in 10% glycerol. Before testing, the isolate was passaged onto agar plates (trypticase soy agar containing 5% sheeps blood) from the frozen stock for two consecutive days. Cation adjusted Mueller Hinton broth (BBL, Cockeysville, Md.) was used for the isolate.
as §1, §2, §3, §4, §5

The mark [3] stands for this setting: drug alone, no unit in this line (other lines μg/ml).

Description for S. saprophyticus 662: The concentration range tested varied for each drug/organism combination to encompass the MIC endpoints of the individual components. […] The last well (H) in column 12 was used as a positive growth control well, containing only medium and test isolate.
The bacteria were diluted to a 0.5 McFarland standard and then further diluted 1/50. Each well was inoculated with 25 μl of the isolate to give a final inoculum density of approximately 5×10^5 cfu/ml. […] After inoculation, the plates were covered with a 96 well microtitre plate lid and incubated at 35° C. in ambient air for 20–24 hours. A 10 μl aliquot of the inoculum was plated on trypticase soy agar containing 5% sheep blood to determine the purity of the final test inoculum.
2) S. saprophyticus 662 was obtained from the SmithKline Beecham Anti-Infectives Research Culture Collection and stored at −80° C. in 10% glycerol. Before testing, the isolate was passaged onto agar plates (trypticase soy agar containing 5% sheeps blood) from the frozen stock for two consecutive days. Cation adjusted Mueller Hinton broth (BBL, Cockeysville, Md.) was used for the isolate.
The combined effect of gemifloxacin and amoxicillin was investigated in S. saprophyticus 662 by using the checkerboard titration method described in Example 1.

As to `N[C@@H](C(=O)N[C@@H]1C(=O)N2C(C(=O)O)=C(Cl)CS[C@H]12)c1ccccc1` [cefaclor], the MIC (commonly the lowest concentration that inhibits growth of the organism) in the assay with E. coli ATCC 25922 (Escherichia coli, ATCC25922, in presence of gemifloxacin 0.002 μg/ml, read-out: cefaclor MIC) was determined as 1 µg/mL. Moreover, the “cefaclor MIC” value in the assay with E. coli ATCC 25922 (setting [3]) worked out at 4.

In the case of `CC(C)(O/N=C(\C(=O)N[C@@H]1C(=O)N2C(C(=O)[O-])=C(C[n+]3ccccc3)CS[C@H]12)c1csc(N)n1)C(=O)O` [ceftazidime], the FICB in assay [1] (P. aeruginosa 6140) came out at 0.25; in assay [1] (P. aeruginosa 6168), 0.06; in assay [1] (P. aeruginosa P003) it was 0.06; in assay [2] (P. aeruginosa 6003) it was 0.25; in assay [2] (P. aeruginosa 6021) it was 0.25; in assay [2] (P. aeruginosa 6030), 0.25. Also, the FICB in assay [2] (P. aeruginosa 6045) is 0.13; in assay [2] (P. aeruginosa 6047), 0.03; in assay [2] (P. aeruginosa 6113), 0.25; in assay [2] (P. aeruginosa 6123), 0.25; in assay [2] (P. aeruginosa 6173) it was 0.25; in assay [2] (P. aeruginosa P032), 0.25. In addition, the FICB worked out at 0.13 in assay [2] (P. aeruginosa P036) and 0.25 in assay [2] (P. aeruginosa P039). The MIC was 32 µg/mL in assay [1] (P. aeruginosa 6140, drug alone, read-out: ceftazidime MIC); 8 µg/mL in assay [1] (P. aeruginosa 6140, in combination with gemifloxacin, read-out: Cceftazidime MIC); 32 µg/mL in assay [1] (P. aeruginosa 6168, drug alone, read-out: ceftazidime MIC); 2 µg/mL in assay [1] (P. aeruginosa 6168, in combination with gemifloxacin, read-out: Cceftazidime MIC); 32 µg/mL in assay [1] (P. aeruginosa P003, drug alone, read-out: ceftazidime MIC); 2 µg/mL in assay [1] (P. aeruginosa P003, in combination with gemifloxacin, read-out: Cceftazidime MIC). Moreover, the MIC was 4 µg/mL in assay [2] (P. aeruginosa 6003, drug alone, read-out: ceftazidime MIC); 1 µg/mL in assay [2] (P. aeruginosa 6003, in combination with gemifloxacin, read-out: Cceftazidime MIC); 4 µg/mL in assay [2] (P. aeruginosa 6021, drug alone, read-out: ceftazidime MIC); 1 µg/mL in assay [2] (P. aeruginosa 6021, in combination with gemifloxacin, read-out: Cceftazidime MIC); 4 µg/mL in assay [2] (P. aeruginosa 6030, drug alone, read-out: ceftazidime MIC); 1 µg/mL in assay [2] (P. aeruginosa 6030, in combination with gemifloxacin, read-out: Cceftazidime MIC). In addition, the minimal inhibitory concentration (MIC) worked out at 64 µg/mL in assay [2] (P. aeruginosa 6045, drug alone, read-out: ceftazidime MIC); 8 µg/mL in assay [2] (P. aeruginosa 6045, in combination with gemifloxacin, read-out: Cceftazidime MIC); 64 µg/mL in assay [2] (P. aeruginosa 6047, drug alone, read-out: ceftazidime MIC); 2 µg/mL in assay [2] (P. aeruginosa 6047, in combination with gemifloxacin, read-out: Cceftazidime MIC); 8 µg/mL in assay [2] (P. aeruginosa 6113, drug alone, read-out: ceftazidime MIC); 2 µg/mL in assay [2] (P. aeruginosa 6113, in combination with gemifloxacin, read-out: Cceftazidime MIC). For the same compound, the MIC in assay [2] (P. aeruginosa 6123, drug alone, read-out: ceftazidime MIC) came to 4 µg/mL; in assay [2] (P. aeruginosa 6123, in combination with gemifloxacin, read-out: Cceftazidime MIC), 1 µg/mL; in assay [2] (P. aeruginosa 6173, drug alone, read-out: ceftazidime MIC), 4 µg/mL; in assay [2] (P. aeruginosa 6173, in combination with gemifloxacin, read-out: Cceftazidime MIC), 1 µg/mL; in assay [2] (P. aeruginosa P032, drug alone, read-out: ceftazidime MIC) it was 4 µg/mL; in assay [2] (P. aeruginosa P032, in combination with gemifloxacin, read-out: Cceftazidime MIC) it was 1 µg/mL. Besides, the MIC was found to be 32 µg/mL in assay [2] (P. aeruginosa P036, drug alone, read-out: ceftazidime MIC); 4 µg/mL in assay [2] (P. aeruginosa P036, in combination with gemifloxacin, read-out: Cceftazidime MIC); 8 µg/mL in assay [2] (P. aeruginosa P039, drug alone, read-out: ceftazidime MIC); 2 µg/mL in assay [2] (P. aeruginosa P039, in combination with gemifloxacin, read-out: Cceftazidime MIC).

In the case of `CC1(C)S[C@@H]2[C@H](NC(=O)[C@H](N)c3ccc(O)cc3)C(=O)N2[C@H]1C(=O)O` [amoxicillin], the MIC in the assay on S. saprophyticus 662 (Staphylococcus saprophyticus, 662, in presence of gemifloxacin 0.004 μg/ml, read-out: amoxicillin MIC) amounted to 0.125 µg/mL.

As to `CO/N=C(\C(=O)N[C@@H]1C(=O)N2C(C(=O)O)=C(COC(C)=O)CS[C@H]12)c1csc(N)n1` [cefotaxime], in the assay with S. saprophyticus 662 (setting [3]), the “amoxicillin MIC” value is 0.5. Also, in the assay on E. faecalis ATCC 29212 (Enterococcus faecalis, ATCC29212, in presence of gemifloxacin 0.008 μg/ml, read-out: cefotaxime MIC), the MIC is 16 µg/mL. Further, the “cefotaxime MIC” value in the assay on E. faecalis ATCC 29212 (setting [3]) came out at 256.

These data come from patent publication US7169792B2, “Method of treating bacterial infections using gemifloxacin or a salt thereof and a β-lactam antibiotic” (priority 2002, dated 2007).
